For 20 compounds, T/C results are on record in PubChem BioAssay AID248 (DTP/NCI, 2004).

The test has as its system L1210 leukemia ip in BDF1 mice, survival T/C. The experiment in a line: NCI In Vivo Anticancer Drug Screen. Data for tumor model L1210 Leukemia (intraperitoneal) in B6D2F1 (BDF1) mice. The settings on record: endpoint: mean survival time, higher = longer survival. In outline: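 Read-out is survival time, reported as the treated-group measurement over the vehicle-control measurement.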

Where [1] appears, read: dose: 25.0 mg/kg/injection, schedule: Q04DX003 (ip), vehicle: saline.
The mark [2] stands for this setting: dose: 50.0 mg/kg/injection, schedule: Q04DX003 (ip), vehicle: saline.
The mark [3] stands for this setting: dose: 100.0 mg/kg/injection, schedule: Q01DX009 (ip), vehicle: saline.
Where [4] appears, read: dose: 100.0 mg/kg/injection, schedule: Q04DX003 (ip), vehicle: saline.
Where [5] appears, read: dose: 100.0 mg/kg/injection, schedule: Q04DX002 (ip), vehicle: Klucel (hydroxypropylcellulose) (HPC).
The mark [6] stands for this setting: dose: 100.0 mg/kg/injection, schedule: Q04DX003 (ip), vehicle: saline with Tween-80.
Setting [7] is: dose: 200.0 mg/kg/injection, schedule: Q04DX003 (ip), vehicle: saline with Tween-80.
[8] abbreviates: dose: 400.0 mg/kg/injection, schedule: Q04DX003 (ip), vehicle: saline with Tween-80.

Values joined by “and” are separate entries in the source; they are usually repeats but may differ in a detail not shown here. Identical values can stand only once. Inconclusive results and toxic doses are left out.

For `O=C(OCC(Cl)(Cl)Cl)c1ccc(Cl)cc1`, the T/C was 97 % of control (dose: 100.0 mg/kg/injection, schedule: Q04DX002 (ip), vehicle: other); 97 % of control (dose: 200.0 mg/kg/injection, schedule: Q04DX002 (ip), vehicle: other); 97 % of control (dose: 400.0 mg/kg/injection, schedule: Q04DX002 (ip), vehicle: other).

Take `S=C([S][Sn]([c]1ccccc1)([c]1ccccc1)[c]1ccccc1)N(c1ccccc1)c1ccccc1`: the T/C runs as follows: (dose: 100.0 mg/kg/injection, schedule: Q01DX001 (ip), vehicle: steriod suspending solution) 89 % of control; (dose: 200.0 mg/kg/injection, schedule: Q01DX001 (ip), vehicle: steriod suspending solution) 98 % of control; (dose: 400.0 mg/kg/injection, schedule: Q01DX001 (ip), vehicle: steriod suspending solution) 104 % of control.

Turning to `Clc1ccccc1OCCNC1CC1`, the T/C (dose: 6.25 mg/kg/injection, schedule: Q01DX009 (ip), vehicle: saline) is 101 % of control; the T/C (dose: 12.5 mg/kg/injection, schedule: Q01DX009 (ip), vehicle: saline) was 105 % of control; the T/C (dose: 25.0 mg/kg/injection, schedule: Q01DX009 (ip), vehicle: saline) was 97 % of control; the T/C under setting [1] is 102 % of control; the T/C (dose: 50.0 mg/kg/injection, schedule: Q01DX009 (ip), vehicle: saline) is 103 % of control; the T/C under setting [2] was 100 % of control. The T/C runs as follows: under setting [3], 105 % of control; under setting [4], 102 % of control.

`CC(C)CNC(=O)c1cccc(-c2ccccc2C(=O)NCC(C)C)c1`: the T/C was 91 % of control (dose: 100.0 mg/kg/injection, schedule: Q01DX001 (ip), vehicle: other); 93 % of control (dose: 200.0 mg/kg/injection, schedule: Q01DX001 (ip), vehicle: other); 96 % of control (dose: 400.0 mg/kg/injection, schedule: Q01DX001 (ip), vehicle: other).

On to `CCOC(=O)CNc1cccc(Br)c1`, for which the T/C was 107 % of control under setting [5]; 100 % of control (dose: 200.0 mg/kg/injection, schedule: Q04DX002 (ip), vehicle: Klucel (hydroxypropylcellulose) (HPC)); 103 % of control (dose: 400.0 mg/kg/injection, schedule: Q04DX002 (ip), vehicle: Klucel (hydroxypropylcellulose) (HPC)).

On to `CC1C(C)(C)P(=O)(c2ccccc2)C1(C)C` (stereo unspecified), for which the T/C was 96 % of control (dose: 12.5 mg/kg/injection, schedule: Q04DX003 (ip), vehicle: saline); 96 % of control under setting [1]; 105 % of control under setting [2].

In the case of `CC(=N\N=C(N)N)/C(=N/N=C(N)N)c1ccccc1`, the T/C is 92 % of control (dose: 3.75 mg/kg/injection, schedule: Q01DX Z (ip), vehicle: saline); 96 % of control (dose: 7.5 mg/kg/injection, schedule: Q01DX Z (ip), vehicle: saline); 95 % of control and 102 % of control (dose: 15.0 mg/kg/injection, schedule: Q01DX Z (ip), vehicle: saline); 92 % of control (dose: 30.0 mg/kg/injection, schedule: Q01DX Z (ip), vehicle: saline); 88 % of control (dose: 240.0 mg/kg/injection, schedule: Q01DX009 (oral), vehicle: saline).

Regarding `CCOC(=O)CN1CCC(C(=O)OC)CC1`, the T/C is 96 % of control under setting [3]; 112 % of control under setting [4]; 98 % of control (dose: 200.0 mg/kg/injection, schedule: Q01DX009 (ip), vehicle: saline); 124 % of control (dose: 200.0 mg/kg/injection, schedule: Q04DX003 (ip), vehicle: saline); 112 % of control (dose: 400.0 mg/kg/injection, schedule: Q01DX009 (ip), vehicle: saline); 96 % of control (dose: 400.0 mg/kg/injection, schedule: Q04DX003 (ip), vehicle: saline).

For `Cc1ccc(C(c2ccccc2)c2ccccc2)cc1C`, the T/C by setting is: (dose: 100.0 mg/kg/injection, schedule: Q01DX001 (ip), vehicle: saline) 97 % of control; (dose: 400.0 mg/kg/injection, schedule: Q01DX001 (ip), vehicle: saline) 88 % of control.

Turning to `CC(=O)O[C@@H]1[C@H]2O[C@H]2[C@H]2O[C@@]2(COC(=O)c2ccccc2)[C@H]1OC(C)=O`, the T/C (dose: 100.0 mg/kg/injection, schedule: Q01DX015 (ip), vehicle: carboxymethylcellulose (CMC)) was 108 % of control; the T/C (dose: 200.0 mg/kg/injection, schedule: Q01DX015 (ip), vehicle: carboxymethylcellulose (CMC)) was 107 % of control; the T/C (dose: 400.0 mg/kg/injection, schedule: Q01DX015 (ip), vehicle: carboxymethylcellulose (CMC)) was 90 % of control.

In the case of `CCCCCCCCCCC(=O)OCC1OC2C(Oc3nc(=N)ccn32)C1OC(=O)CCCCCCCCCC` (stereo unspecified), the T/C is 166 % of control (dose: 25.0 mg/kg/injection, schedule: Q01DX009 (ip), vehicle: water) and 210 % of control (dose: 50.0 mg/kg/injection, schedule: Q01DX009 (ip), vehicle: water).

In the case of `NC(=O)NCO`, the T/C was 94 % of control (dose: 100.0 mg/kg/injection, schedule: Q04DX002 (ip), vehicle: saline with Tween-80); 94 % of control (dose: 200.0 mg/kg/injection, schedule: Q04DX002 (ip), vehicle: saline with Tween-80); 90 % of control (dose: 400.0 mg/kg/injection, schedule: Q04DX002 (ip), vehicle: saline with Tween-80).

With `C/C=C\C=C\C(=O)OC`, the T/C reads like this: under setting [6], 99 % of control; under setting [7], 89 % of control; under setting [8], 92 % of control.

Take `CCCCN(CCC#N)C(N)=O`: for the setting “dose: 100.0 mg/kg/injection, schedule: Q01DX Z (ip), vehicle: methylcellulose (MC)”, the T/C was 100 % of control.

For `O=C1CCCc2cc3c(cc21)CCCC3`, the T/C is 96 % of control (dose: 100.0 mg/kg/injection, schedule: Q01DX009 (ip), vehicle: Klucel (hydroxypropylcellulose) (HPC)); 109 % of control (dose: 100.0 mg/kg/injection, schedule: Q04DX003 (ip), vehicle: Klucel (hydroxypropylcellulose) (HPC)); 97 % of control (dose: 200.0 mg/kg/injection, schedule: Q01DX009 (ip), vehicle: Klucel (hydroxypropylcellulose) (HPC)); 107 % of control (dose: 200.0 mg/kg/injection, schedule: Q04DX003 (ip), vehicle: Klucel (hydroxypropylcellulose) (HPC)); 102 % of control (dose: 400.0 mg/kg/injection, schedule: Q04DX003 (ip), vehicle: Klucel (hydroxypropylcellulose) (HPC)).

Turning to `Clc1ccc(SCSc2nc3ccccc3s2)cc1`, the T/C reads like this: (dose: 25.0 mg/kg/injection, schedule: Q04DX002 (ip), vehicle: Klucel (hydroxypropylcellulose) (HPC)) 105 % of control; (dose: 50.0 mg/kg/injection, schedule: Q04DX002 (ip), vehicle: Klucel (hydroxypropylcellulose) (HPC)) 86 % of control; under setting [5], 93 % of control.

`CCOC(=O)C(=O)Nc1ccc([N+](=O)[O-])cc1`: the T/C under setting [6] is 87 % of control, the T/C under setting [7] is 98 % of control and the T/C under setting [8] is 87 % of control.

In the case of `O=C1c2cccc3cccc(c23)C1(Br)Br`, the T/C by setting is: (dose: 75.0 mg/kg/injection, schedule: Q01DX001 (ip), vehicle: other) 101 % of control; (dose: 150.0 mg/kg/injection, schedule: Q01DX001 (ip), vehicle: other) 104 % of control.

`CCOC(=O)NC(=S)Nc1ccccc1NC(=S)NC(=O)OCC`: the T/C by setting is: (dose: 100.0 mg/kg/injection, schedule: Q04DX003 (ip), vehicle: gum acacia) 97 % of control; (dose: 200.0 mg/kg/injection, schedule: Q04DX003 (ip), vehicle: gum acacia) 97 % of control; (dose: 400.0 mg/kg/injection, schedule: Q04DX003 (ip), vehicle: gum acacia) 94 % of control.

In the case of `CCOC(=O)C(=N\Nc1ccc(Cl)cc1Cl)/C(C)=N\NC(N)=S`, the T/C is 95 % of control (dose: 75.0 mg/kg/injection, schedule: Q01DX001 (ip), vehicle: saline) and 104 % of control (dose: 300.0 mg/kg/injection, schedule: Q01DX001 (ip), vehicle: saline).
